Several values for one entry are separate records, joined by “and”; a condition that tells them apart may be missing. Equal values may be shown once. Inconclusive results and toxic doses are left out.
Tested on: P388 leukemia ip, CD2F1 mice, survival T/C
Experiment: NCI In Vivo Anticancer Drug Screen. Data for tumor model P388 Leukemia (intraperitoneal) in CD2F1 (CDF1) mice
Details: endpoint: median survival time, higher = longer survival
How it was run: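 Mice carrying the transplanted tumor received test compound or vehicle. Survival was recorded in each group, and the value is the treated-group measurement divided by that of the vehicle-treated control group.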

[1] = dose: 60.0 mg/kg/injection, schedule: Q01DX005 (ip), vehicle: Klucel (hydroxypropylcellulose) (HPC)
[2] = dose: 12.5 mg/kg/injection, schedule: Q01DX009 (ip), vehicle: Klucel (hydroxypropylcellulose) (HPC)
[3] = dose: 25.0 mg/kg/injection, schedule: Q01DX009 (ip), vehicle: Klucel (hydroxypropylcellulose) (HPC)
[4] = dose: 50.0 mg/kg/injection, schedule: Q01DX005 (ip), vehicle: Klucel (hydroxypropylcellulose) (HPC)
[5] = dose: 100.0 mg/kg/injection, schedule: Q01DX005 (ip), vehicle: Klucel (hydroxypropylcellulose) (HPC)
[6] = dose: 200.0 mg/kg/injection, schedule: Q01DX005 (ip), vehicle: Klucel (hydroxypropylcellulose) (HPC)
[7] = dose: 50.0 mg/kg/injection, schedule: Q01DX009 (ip), vehicle: Klucel (hydroxypropylcellulose) (HPC)
[8] = dose: 100.0 mg/kg/injection, schedule: Q01DX009 (ip), vehicle: Klucel (hydroxypropylcellulose) (HPC)
[9] = dose: 200.0 mg/kg/injection, schedule: Q01DX009 (ip), vehicle: Klucel (hydroxypropylcellulose) (HPC)
[10] = dose: 120.0 mg/kg/injection, schedule: Q01DX005 (ip), vehicle: Klucel (hydroxypropylcellulose) (HPC)
[11] = dose: 12.5 mg/kg/injection, schedule: Q01DX005 (ip), vehicle: saline with Tween-80
[12] = dose: 25.0 mg/kg/injection, schedule: Q01DX005 (ip), vehicle: saline with Tween-80
[13] = dose: 50.0 mg/kg/injection, schedule: Q01DX009 (ip), vehicle: saline with Tween-80
[14] = dose: 200.0 mg/kg/injection, schedule: Q01DX009 (ip), vehicle: saline with Tween-80
[15] = dose: 100.0 mg/kg/injection, schedule: Q01DX009 (ip), vehicle: saline with Tween-80
[16] = dose: 60.0 mg/kg/injection, schedule: Q01DX005 (ip), vehicle: saline with Tween-80
[17] = dose: 120.0 mg/kg/injection, schedule: Q01DX005 (ip), vehicle: saline with Tween-80
[18] = dose: 240.0 mg/kg/injection, schedule: Q01DX005 (ip), vehicle: saline with Tween-80
[19] = dose: 12.5 mg/kg/injection, schedule: Q01DX009 (ip), vehicle: saline with Tween-80
[20] = dose: 25.0 mg/kg/injection, schedule: Q01DX009 (ip), vehicle: saline with Tween-80
[21] = dose: 50.0 mg/kg/injection, schedule: Q01DX005 (ip), vehicle: saline with Tween-80
[22] = dose: 100.0 mg/kg/injection, schedule: Q01DX005 (ip), vehicle: saline with Tween-80

O=NNc1ccc(F)cn1
T/C (dose: 3.12 mg/kg/injection, schedule: Q01DX009 (ip), vehicle: water): 117 % of control | T/C (dose: 12.5 mg/kg/injection, schedule: Q01DX009 (ip), vehicle: water): 153 % of control | T/C (dose: 25.0 mg/kg/injection, schedule: Q01DX009 (ip), vehicle: water): 162 % of control and 166 % of control | T/C (dose: 50.0 mg/kg/injection, schedule: Q01DX009 (ip), vehicle: water): 99 % of control

Cc1cc(C)c(C(CC(=O)O)C(CC(=O)O)c2c(C)cc(C)cc2C)c(C)c1 (stereo unspecified)
T/C [1]: 90 % of control

O=[N+]([O-])c1ccc(Oc2ccccc2[N+](=O)[O-])nc1
T/C (dose: 6.25 mg/kg/injection, schedule: Q01DX009 (ip), vehicle: Klucel (hydroxypropylcellulose) (HPC)): 106 % of control | T/C [2]: 105 % of control | T/C [3]: 103 % of control

Nc1cc2nc(=O)cc3n2c(n1)SC3
T/C [4]: 99 % of control | T/C [5]: 100 % of control | T/C [6]: 100 % of control

COc1cc2c(cc1OC)-c1c(C)c3ccc(OC)c(NCCO)c3c[n+]1CC2
T/C (dose: 50.0 mg/kg/injection, schedule: Q04DX003 (ip), vehicle: water): 102 % of control | T/C (dose: 100.0 mg/kg/injection, schedule: Q04DX003 (ip), vehicle: water): 107 % of control

CCOC(OCC)C(=O)NNS(=O)(=O)c1ccc(C)cc1
T/C (dose: 12.5 mg/kg/injection, schedule: Q01DX009 (ip), vehicle: other): 105 % of control | T/C (dose: 25.0 mg/kg/injection, schedule: Q01DX009 (ip), vehicle: other): 106 % of control | T/C (dose: 50.0 mg/kg/injection, schedule: Q01DX009 (ip), vehicle: other): 100 % of control | T/C (dose: 100.0 mg/kg/injection, schedule: Q01DX009 (ip), vehicle: other): 99 % of control | T/C (dose: 200.0 mg/kg/injection, schedule: Q01DX009 (ip), vehicle: other): 90 % of control

CCOC(=O)CNC(=O)Nc1ccc(S(=O)(=O)Nc2nc(C)cc(C)n2)cc1
T/C [7]: 102 % of control | T/C [8]: 100 % of control | T/C [9]: 100 % of control

CC(=O)C(=Cc1ccc(OC2OC(CO)C(O)C(O)C2O)cc1)C(C)=O (stereo unspecified)
T/C (dose: 60.0 mg/kg/injection, schedule: Q01DX005 (ip), vehicle: saline): 100 % of control | T/C (dose: 120.0 mg/kg/injection, schedule: Q01DX005 (ip), vehicle: saline): 100 % of control | T/C (dose: 240.0 mg/kg/injection, schedule: Q01DX005 (ip), vehicle: saline): 98 % of control

COc1c(OC2OC(CO)C(O)C(O)C2O)cc2c(c1OC)-c1ccc(OC)c(=O)cc1C(NC(C)=O)CC2 (stereo unspecified)
T/C (dose: 12.5 mg/kg/injection, schedule: Q01DX005 (ip), vehicle: saline): 108 % of control | T/C (dose: 25.0 mg/kg/injection, schedule: Q01DX005 (ip), vehicle: saline): 106 % of control | T/C (dose: 50.0 mg/kg/injection, schedule: Q01DX005 (ip), vehicle: saline): 117 % of control and 121 % of control

COC(=O)c1nc(N)nc(C(=O)OC)c1C(=O)c1cccc([N+](=O)[O-])c1
T/C [1]: 100 % of control | T/C [10]: 101 % of control

CC(=O)Oc1cccnc1C(C#N)C#N
T/C [11]: 108 % of control | T/C [12]: 94 % of control

Cc1ccc(NC(=O)N(CCCCl)N=O)cc1
T/C [13]: 86 % of control | T/C (dose: 100.0 mg/kg/injection, schedule: Q04DX003 (ip), vehicle: saline with Tween-80): 95 % of control | T/C [14]: 100 % of control | T/C (dose: 200.0 mg/kg/injection, schedule: Q04DX003 (ip), vehicle: saline with Tween-80): 90 % of control

CC1OC(O[C@H]2C[C@](O)(C(=O)CO)Cc3c(O)c4c(c(O)c32)C(=O)c2c(OCc3ccccc3)cccc2C4=O)CC(N)C1O (stereo partly specified)
T/C (dose: 3.13 mg/kg/injection, schedule: Q04DX003 (ip), vehicle: water): 118 % of control | T/C (dose: 6.25 mg/kg/injection, schedule: Q04DX003 (ip), vehicle: distilled water + Tween-80): 110 % of control | T/C (dose: 6.25 mg/kg/injection, schedule: Q04DX003 (ip), vehicle: water): 118 % of control | T/C (dose: 12.5 mg/kg/injection, schedule: Q04DX003 (ip), vehicle: water): 123 % of control | T/C (dose: 25.0 mg/kg/injection, schedule: Q04DX003 (ip), vehicle: water): 123 % of control

Cc1ccc2c(c1)nc1cc3c(cc1n2C1CCCCC1)c(Cl)c(=O)c1ccccc13
T/C [13]: 92 % of control | T/C [15]: 92 % of control | T/C [14]: 98 % of control

CCCCCCCCCCCCCCCCOC(=O)c1ccc(O)cc1
T/C [7]: 95 % of control | T/C [8]: 92 % of control | T/C [9]: 103 % of control

O=C(Nc1cc(Cl)c(Cl)cc1Cl)N1CCOCC1
T/C [16]: 104 % of control | T/C [17]: 105 % of control | T/C [18]: 102 % of control

CCOC(=O)CC/C(=C\NC(=O)c1ccccc1)NC(=O)c1ccccc1
T/C [16]: 96 % of control | T/C [17]: 88 % of control | T/C [18]: 90 % of control

O=c1c(SSc2coc3ccccc3c2=O)coc2ccccc12
T/C [16]: 116 % of control | T/C [17]: 102 % of control | T/C [18]: 106 % of control

CCCCCCC(O)C[N+](=O)[O-] (stereo unspecified)
T/C (dose: 5.56 mg/kg/injection, schedule: Q01DX009 (ip), vehicle: saline with Tween-80): 102 % of control | T/C (dose: 8.33 mg/kg/injection, schedule: Q01DX009 (ip), vehicle: saline with Tween-80): 110 % of control | T/C [19]: 117 % of control and 124 % of control | T/C (dose: 18.7 mg/kg/injection, schedule: Q01DX009 (ip), vehicle: saline with Tween-80): 115 % of control | T/C [20]: 111 % of control | T/C [13]: 120 % of control

CCOC(=O)c1sc(=S)n(C(C)C)c1C
T/C [11]: 101 % of control | T/C [12]: 101 % of control | T/C [21]: 101 % of control and 102 % of control | T/C [22]: 100 % of control | T/C (dose: 200.0 mg/kg/injection, schedule: Q01DX005 (ip), vehicle: saline with Tween-80): 98 % of control

Cc1c2c(cc3c1[nH]c1ccccc13)C(c1ccc(Cl)cc1)=NCC2
T/C [2]: 99 % of control | T/C [3]: 101 % of control | T/C [7]: 96 % of control | T/C [8]: 96 % of control

CC1(C(=O)O)CCCC2(C)C(CC(=O)O)C(=O)CCC12 (stereo unspecified)
T/C (dose: 5.0 mg/kg/injection, schedule: Q01DX009 (ip), vehicle: saline with Tween-80): 101 % of control | T/C (dose: 10.0 mg/kg/injection, schedule: Q01DX009 (ip), vehicle: saline with Tween-80): 108 % of control | T/C (dose: 20.0 mg/kg/injection, schedule: Q01DX009 (ip), vehicle: saline with Tween-80): 99 % of control

Cc1cc(NC(=O)Nc2cc(Cl)ccc2C)no1
T/C [1]: 87 % of control | T/C [10]: 93 % of control | T/C (dose: 240.0 mg/kg/injection, schedule: Q01DX005 (ip), vehicle: Klucel (hydroxypropylcellulose) (HPC)): 93 % of control

CN1CCC2(C)CC(Br)(Cc3ccccc32)C1Cl (stereo unspecified)
T/C [4]: 108 % of control | T/C [5]: 106 % of control

CCN(CC)c1nc(N)nc(N)n1
T/C (dose: 6.25 mg/kg/injection, schedule: Q01DX009 (ip), vehicle: saline): 106 % of control | T/C [19]: 107 % of control | T/C (dose: 12.5 mg/kg/injection, schedule: Q01DX009 (ip), vehicle: saline): 103 % of control | T/C [20]: 103 % of control | T/C (dose: 25.0 mg/kg/injection, schedule: Q01DX009 (ip), vehicle: saline): 107 % of control and 94 % of control | T/C [13]: 107 % of control and 94 % of control | T/C (dose: 50.0 mg/kg/injection, schedule: Q01DX009 (ip), vehicle: saline): 100 % of control | T/C [15]: 101 % of control | T/C (dose: 100.0 mg/kg/injection, schedule: Q01DX009 (ip), vehicle: saline): 97 % of control | T/C [14]: 88 % of control

N#CC(C(=O)CCc1nc2ccccc2[nH]1)c1ccccc1Cl (stereo unspecified)
T/C [16]: 111 % of control | T/C [17]: 105 % of control | T/C [18]: 96 % of control

Cc1ccc(S(=O)(=O)C(C#N)(CCC(=O)/C=C/c2ccccc2)CCC(=O)/C=C/c2ccccc2)cc1
T/C [4]: 99 % of control | T/C [5]: 92 % of control | T/C [6]: 92 % of control

CCOc1c(N=Nc2ccccc2Cl)c(-c2ccccc2)nn1C(=S)S
T/C [21]: 105 % of control | T/C [22]: 99 % of control

— PubChem BioAssay AID330 (DTP/NCI, 2004)
